Data from ChEMBL document CHEMBL1128014, “Synthesis and biological activity of a potent antiplatelet 7-aminofurochromone” (Bioorg Med Chem Lett, 1994).

Key:
Homo sapiens [1] = species: Homo sapiens; experiment: Compound was tested for its ability to inhibit ADP-induced human platelet aggregation; format: functional
Homo sapiens [2] = species: Homo sapiens; experiment: Potency to inhibit ADP-induced human platelet aggregation was determined relative to compound 1(5-Methyl-3-morpholin-4-yl-6-(2-naphthalene-1-one); format: functional
Canis familiaris [3] = experiment: Time interval between start of drug treatment and first change in CFR pattern of blood flow at an iv dose of 30 ug/kg plus a constant infusion of 3 ug/kg/min; format: functional, Canis lupus familiaris
Homo sapiens [4] = species: Homo sapiens; experiment: Effect on aggregation of thrombin-stimulated washed human platelets at a concentration of 1 uM; format: functional
Homo sapiens [5] = species: Homo sapiens; experiment: Effect on PGI2-stimulated cAMP in washed human platelets at a concentration of 0.3 uM +1 ng/mL of PGI2; pmol/5E8 platelets; format: functional
Canis familiaris [6] = experiment: Effect on heart rate was determined at an iv dose of 10 ug/kg plus a constant infusion of 1 ug/kg/min in a canine model; format: functional, Canis lupus familiaris
Canis familiaris [7] = experiment: Time interval between end of drug treatment and restoration of CFR pattern of blood flow at an iv dose of 3 ug/kg/60 min in canine model; format: functional, Canis lupus familiaris
Homo sapiens [8] = species: Homo sapiens; experiment: Effect on aggregation of thrombin-stimulated washed human platelets at a concentration of 0.3 uM; format: functional
Canis familiaris [9] = experiment: Effect on Cyclical Flow Reductions induced by intracoronary platelet aggregation in stenosed canine coronary arteries at an iv dose of 10 ug/kg plus a constant infusion of 1 ug/kg/min in canine model; format: functional, Canis lupus familiaris
Canis familiaris [10] = experiment: Effect on Cyclical Flow Reductions induced by intracoronary platelet aggregation in stenosed canine coronary arteries at an iv dose of 30 ug/kg plus a constant infusion of 3 ug/kg/min in canine model; format: functional, Canis lupus familiaris
Canis familiaris [11] = experiment: Effect on mean arterial pressure was determined at an iv dose of 3 ug/kg/60 min in canine model; format: functional, Canis lupus familiaris, Artery
Canis familiaris [12] = experiment: Effect on Cyclical Flow Reductions induced by intracoronary platelet aggregation in stenosed canine coronary arteries at an iv dose of 3 ug/kg/60 min in canine model; format: functional, Canis lupus familiaris
Canis familiaris [13] = experiment: Effect on heart rate was determined at an iv dose of 3 ug/kg/60 min in canine model; format: functional, Canis lupus familiaris
Canis familiaris [14] = experiment: Effect on heart rate was determined at an iv dose of 100 ug/kg plus a constant infusion of 10 ug/kg/min in a canine model; format: functional, Canis lupus familiaris
Homo sapiens [15] = species: Homo sapiens; experiment: Effect on aggregation of thrombin-stimulated washed human platelets at a concentration of 0.1 uM; format: functional
Canis familiaris [16] = experiment: Effect on heart rate was determined at an iv dose of 10 ug/kg/60 min in a canine model; format: functional, Canis lupus familiaris
Canis familiaris [17] = experiment: Effect on Cyclical Flow Reductions induced by intracoronary platelet aggregation in stenosed canine coronary arteries at an iv dose of 100 ug/kg plus a constant infusion of 10 ug/kg/min in canine model; format: functional, Canis lupus familiaris
Canis familiaris [18] = experiment: Effect on mean arterial pressure was determined at an iv dose of 30 ug/kg plus a constant infusion of 3 ug/kg/min in canine model; format: functional, Canis lupus familiaris, Artery
Canis familiaris [19] = experiment: Time interval between end of drug treatment and restoration of CFR pattern of blood flow at an iv dose of 30 ug/kg plus a constant infusion of 3 ug/kg/min in canine model; format: functional, Canis lupus familiaris
Canis familiaris [20] = experiment: Time interval between start of drug treatment and first change in CFR pattern of blood flow at an iv dose of 100 ug/kg plus a constant infusion of 10 ug/kg/min; format: functional, Canis lupus familiaris
Canis familiaris [21] = experiment: Effect on mean arterial pressure was determined at an iv dose of 10 ug/kg plus a constant infusion of 1 ug/kg/min in canine model; format: functional, Canis lupus familiaris, Artery
Canis familiaris [22] = experiment: Time interval between start of drug treatment and first change in CFR pattern of blood flow at an iv dose of 10 ug/kg/60 min in a canine model; format: functional, Canis lupus familiaris
Homo sapiens [23] = species: Homo sapiens; experiment: Effect on cAMP levels in washed platelets at a concentration of 0.1 uM; pmol/5E8 platelets; format: functional
Canis familiaris [24] = experiment: Effect on mean arterial pressure was determined at an iv dose of 10 ug/kg/60 min in a canine model; format: functional, Canis lupus familiaris, Artery
Canis familiaris [25] = experiment: Time interval between end of drug treatment and restoration of CFR pattern of blood flow at an iv dose of 10 ug/kg plus a constant infusion of 1 ug/kg/min in canine model; format: functional, Canis lupus familiaris
Canis familiaris [26] = experiment: Effect on mean arterial pressure was determined at an iv dose of 100 ug/kg plus a constant infusion of 10 ug/kg/min in canine model; format: functional, Canis lupus familiaris, Artery
Homo sapiens [27] = species: Homo sapiens; experiment: Effect on cAMP levels in washed platelets at a concentration of 0.3 uM; pmol/5E8 platelets; format: functional
Canis familiaris [28] = experiment: Time interval between end of drug treatment and restoration of CFR pattern of blood flow at an iv dose of 10 ug/kg/60 min in a canine model; format: functional, Canis lupus familiaris
Canis familiaris [29] = experiment: Effect on heart rate was determined at an iv dose of 30 ug/kg plus a constant infusion of 3 ug/kg/min in a canine model; format: functional, Canis lupus familiaris
Canis familiaris [30] = experiment: Time interval between end of drug treatment and restoration of CFR pattern of blood flow at an iv dose of 100 ug/kg plus a constant infusion of 10 ug/kg/min in canine model; format: functional, Canis lupus familiaris
Canis familiaris [31] = experiment: Effect on Cyclical Flow Reductions induced by intracoronary platelet aggregation in stenosed canine coronary arteries at an iv dose of 10 ug/kg/60 min in a canine model; format: functional, Canis lupus familiaris

Compound: Cc1c2c(cc3c(=O)cc(N4CCOCC4)oc13)CC(CN1CCSCC1)O2 (stereo not given)
- IC50 (Homo sapiens [1]): 3.6 µM
- Relative potency (Homo sapiens [2]): 2.4

Compound: Cc1c2oc(CN3CCCC3)cc2cc2c(=O)cc(N3CCOCC3)oc12
- IC50 (Homo sapiens [1]): 15.4 µM
- Relative potency (Homo sapiens [2]): 0.5

Compound: Cc1c(OCCN2CCN(C)CC2)ccc2c(=O)cc(N3CCOCC3)oc12
- IC50 (Homo sapiens [1]): 8.6 µM
- Relative potency (Homo sapiens [2]): 1

Compound: Cc1c2c(cc3c(=O)cc(N4CCOCC4)oc13)CC(CN1CCCCC1)O2 (stereo not given)
- IC50 (Homo sapiens [1]): 6.2 µM
- Relative potency (Homo sapiens [2]): 0.5

Compound: Cc1c2oc(CN3CCN(C)CC3)cc2cc2c(=O)cc(N3CCOCC3)oc12
- IC50 (Homo sapiens [1]): 9.1 µM
- Relative potency (Homo sapiens [2]): 0.9

Compound: Cc1c2c(cc3c(=O)cc(N4CCOCC4)oc13)CC(CN1CCN(C)CC1)O2 (stereo not given)
- IC50 (Homo sapiens [1]): 5.6 µM
- Relative potency (Homo sapiens [2]): 0.5

Compound: Cc1c2oc(CN3CCSCC3)cc2cc2c(=O)cc(N3CCOCC3)oc12
- Onset time (Canis familiaris [3]): 1 min
- Activity (Homo sapiens [4]): 25.7
- Aggregation (Homo sapiens [4]): 0%
- Activity (Homo sapiens [5]): 163.1
- Heart rate (Canis familiaris [6]): 106%
- Offset time (Canis familiaris [7]): 27 min
- Aggregation (Homo sapiens [8]): 0%
- CFR rating (Canis familiaris [9]): 1
- CFR rating (Canis familiaris [10]): 2
- Mean arterial blood pressure (Canis familiaris [11]): 93%
- CFR rating (Canis familiaris [12]): 3
- Heart rate (Canis familiaris [13]): 104%
- Heart rate (Canis familiaris [14]): 116%
- Activity (Homo sapiens [15]): 25.7
- Aggregation (Homo sapiens [15]): 14%
- IC50 (Homo sapiens [1]): 0.35 µM
- Heart rate (Canis familiaris [16]): 116%
- CFR rating (Canis familiaris [17]): 3
- Mean arterial blood pressure (Canis familiaris [18]): 88%
- Offset time (Canis familiaris [19]): 34 min
- Onset time (Canis familiaris [20]): 1 min
- Mean arterial blood pressure (Canis familiaris [21]): 99%
- Onset time (Canis familiaris [22]): 8 min
- Activity (Homo sapiens [23]): 13.2
- Mean arterial blood pressure (Canis familiaris [24]): 86%
- Offset time (Canis familiaris [25]): 3 min
- Mean arterial blood pressure (Canis familiaris [26]): 74%
- Activity (Homo sapiens [27]): 36.1
- Offset time (Canis familiaris [28]): 36 min
- Heart rate (Canis familiaris [29]): 112%
- Offset time (Canis familiaris [30]): >60 min
- Relative potency (Homo sapiens [2]): 4.5
- CFR rating (Canis familiaris [31]): 3
